Test results taken from PubChem BioAssay AID977605 (Broad Institute, 2014).
Active and inactive are the calls of the source.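 The calls were made as follows: active = fitted curve reaches 40% activation below the top valid tested dose, in every test run; inconclusive = test runs disagree on the call; inactive = the rest, including effects opposite to the expected direction.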

Assay: endothelial E-selectin upregulation by compounds – imaging, HUVEC, cherry-picked samples, dose response (AID 977605);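 also: signal is the share of imaged cells scored positive for E-selectin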
Conditions: HUVEC E-selectin immunostaining, at 10 µM (top of the series), percent of TNF-alpha response over vehicle

SMILES	activation
C[C@@H]1CN([C@H](C)CO)C(=O)c2c(c3ccccc3n2C)-c2ccccc2CO[C@@H]1CN(C)Cc1ccccc1C(F)(F)F	0.002% (inactive)

Same assay, conditions: HUVEC E-selectin immunostaining, at 19.5 µM (top of the series)

SMILES	activation
NC(C(=O)O)c1cc(=O)[nH]o1 (centres undefined)	0.044% (inactive)

Same assay, conditions: HUVEC E-selectin immunostaining, at 19.5 µM (top of the series), percent of TNF-alpha response over vehicle

SMILES	activation
Cc1ccc(S(=O)(=O)Nc2ccc3c(c2)C(=O)N([C@H](C)CO)C[C@H](C)[C@H](CN(C)C(=O)Nc2cccc4ccccc24)OCCCC[C@@H](C)O3)cc1	7.64% (inactive)
Cc1cc(C)c2sc(NNC(=O)C3COc4ccccc4O3)nc2c1 (centres undefined)	0.141% (inactive)
CC(C)c1ccc(C(=O)Nc2nnc(S(=O)(=O)N3CCCCC3)s2)cc1	-0.055% (inactive)
C[C@@H]1CN([C@H](C)CO)C(=O)c2cc(N(C)C)ccc2O[C@@H]1CN(C)C(=O)Nc1ccc2c(c1)OCO2	0.018% (inactive)
Cc1ccc(S(=O)(=O)NC(Cc2ccccc2)C(=O)O)cc1C (centres undefined)	-0.133% (inactive)
CC(C)NC(=O)N(C)C[C@H]1Oc2c(NC(=O)c3ccc(-c4nccs4)cc3)cccc2C(=O)N([C@@H](C)CO)C[C@H]1C	2.24% (inactive)
C[C@@H]1CN([C@@H](C)CO)C(=O)c2cccc(NC(=O)c3ccc(-c4nccs4)cc3)c2O[C@@H]1CN(C)Cc1ccc(Cl)c(Cl)c1	0.039% (inactive)
COc1ccc(N2CCN(C(=O)c3cccc(NC4=NC5CS(=O)(=O)CC5S4)c3)CC2)cc1 (centres undefined)	-0.136% (inactive)
COc1ccc(S(=O)(=O)Nc2cccc3c2O[C@H](CN(C)C(=O)Nc2c(C)noc2C)[C@H](C)CN([C@@H](C)CO)C3=O)cc1	-0.052% (inactive)
COc1cccc(NC(=O)c2ccc(OC(F)(F)F)cc2)c1	0.305% (inactive)
C[C@@H]1CN([C@@H](C)CO)C(=O)c2cccc(NC(=O)C3CC3)c2O[C@H]1CN(C)Cc1ccccc1	0.172% (inactive)
C[C@@H]1CN([C@H](C)CO)C(=O)Cc2cc(NS(=O)(=O)c3cccs3)ccc2O[C@@H]1CN(C)Cc1ccc(C(=O)Nc2ccccc2N)cc1	1.45% (inactive)
COc1ccc(NC(=O)Nc2cccc3c2O[C@@H](CN(C)C(=O)NC2CCCCC2)[C@@H](C)CN([C@H](C)CO)C3=O)cc1	0.334% (inactive)
CCn1c(SCC(=O)Nc2cccc(C)c2)nc2c(c1=O)SC(C)C2 (centres undefined)	-0.269% (inactive)
C[C@@H]1CN([C@H](C)CO)C(=O)Cc2cc(NC(=O)c3ccncc3)ccc2O[C@H]1CN(C)S(C)(=O)=O	-0.058% (inactive)
Cc1nn(CCS(=O)(=O)c2ccc(Cl)cc2)c(C)c1Br	0.08% (inactive)
CC(=O)Nc1ccc(CNc2nc(NC(C)C)nc3cc(-c4ccccc4)sc23)cc1	1.22% (inactive)
C[C@H]1CN([C@@H](C)CO)C(=O)Cc2cc(NS(=O)(=O)c3ccccc3)ccc2O[C@H]1CN(C)Cc1ccc(C(F)(F)F)cc1	10.6% (inactive)
COc1ccc(S(=O)(=O)Nc2ccc3c(c2)C(=O)N([C@H](C)CO)C[C@@H](C)[C@@H](CN(C)C(=O)Nc2cccc4ccccc24)O3)cc1	1.7% (inactive)
C[C@@H]1CN([C@H](C)CO)C(=O)Cc2cc(NC(=O)C3CC3)ccc2O[C@@H]1CN(C)Cc1ccc2c(c1)OCO2	-0.006% (inactive)

SMILES	activation
C[C@H](CO)N1C[C@H](C)[C@H](CN(C)S(=O)(=O)c2ccc(Cl)cc2)Oc2ccc(NC(=O)NC3CCCCC3)cc2C1=O	-0.048% (inactive)
Cc1cc(C)nc(NC(N)=NC(C)c2ccccc2)n1 (centres undefined)	-0.07% (inactive)
C[C@@H]1CN([C@@H](C)CO)C(=O)Cc2cc(NC(=O)Cc3cn(C)c4ccccc34)ccc2O[C@H]1CN(C)Cc1ccc(C(F)(F)F)cc1	1.99% (inactive)
C[C@@H]1CN([C@@H](C)CO)S(=O)(=O)c2ccc(C#CC3CC3)cc2O[C@@H]1CN(C)Cc1cccnc1	-0.068% (inactive)
C[C@H](CO)N1C[C@H](C)[C@H](CN(C)C(=O)NC2CCCCC2)Oc2ccc(NS(=O)(=O)c3ccccc3)cc2C1=O	-0.156% (inactive)
O=C(COC(=O)c1ccccc1NCCO)NNC(=O)c1cccs1	-0.279% (inactive)
COc1cccc(CNC(=O)c2cc3c(cc2Cl)N2CCCCCC2=NS3(=O)=O)c1	-0.058% (inactive)
COc1ccc(C#Cc2ccc3c(c2)O[C@@H](CN(C)C(=O)Nc2cccc(OC)c2)[C@H](C)CN([C@@H](C)CO)S3(=O)=O)cc1	4.46% (inactive)
O=S(=O)(NCc1csc(-c2cccs2)n1)c1ccc(Cl)cc1	0.045% (inactive)
COc1ccc(S(=O)(=O)N(C)C[C@@H]2Oc3ccc(NC(=O)Nc4c(C)noc4C)cc3C(=O)N([C@H](C)CO)C[C@@H]2C)cc1	-0.123% (inactive)
Cc1noc(C)c1S(=O)(=O)N(C)C[C@@H]1Oc2ccc(NC(=O)Nc3ccc(F)cc3)cc2CC(=O)N([C@@H](C)CO)C[C@@H]1C	-0.013% (inactive)
C[C@@H]1CN([C@@H](C)CO)C(=O)Cc2cc(NC(=O)Nc3ccc(F)cc3)ccc2O[C@H]1CN(C)Cc1ccc(C(=O)O)cc1	-0.089% (inactive)
COc1ccc(CNC(=O)Cn2ccc(N)nc2=O)cc1	0.076% (inactive)
CCCCNC(=O)N1CCN(c2ccccc2OCC)CC1	0.12% (inactive)
C[C@@H]1CN([C@@H](C)CO)C(=O)Cc2cc(NS(=O)(=O)c3ccc(F)cc3)ccc2O[C@H]1CN(C)S(=O)(=O)c1ccc(Cl)cc1	-0.127% (inactive)
COc1ccc(S(=O)(=O)N(C)C[C@H]2Oc3ccc(NC(=O)CCCN(C)C)cc3C(=O)N([C@@H](C)CO)C[C@H]2C)cc1	0.162% (inactive)
CC(C)NC(=O)Nc1cccc2c1O[C@H](CN(C)Cc1ccc(Cl)c(Cl)c1)[C@@H](C)CN([C@@H](C)CO)C2=O	0.01% (inactive)
CS(=O)(=O)N1CCc2cc(S(=O)(=O)NCCNS(=O)(=O)c3ccc4c(c3)CCN4S(C)(=O)=O)ccc21	0.185% (inactive)
Cc1noc(C)c1NC(=O)N(C)C[C@@H]1Oc2ccc(NC(=O)c3ccncc3)cc2C(=O)N([C@H](C)CO)C[C@H]1C	-0.047% (inactive)
COc1ccc(S(=O)(=O)Nc2cccc3c2O[C@H](CN(C)C(=O)Nc2cccc4ccccc24)[C@@H](C)CN([C@H](C)CO)C3=O)cc1	-0.185% (inactive)

SMILES	activation
COc1ccc2[nH]c(=O)c(CN(c3ccccc3)S(=O)(=O)c3ccccc3)cc2c1	3% (inactive)
CCCCC1C(=O)N(c2ccccc2)N(c2ccc(O)cc2)C1=O (centres undefined)	-0.246% (inactive)
C[C@H](CO)N1C[C@H](C)[C@H](CN(C)S(=O)(=O)c2cccs2)Oc2c(NC(=O)Nc3ccccc3)cccc2C1=O	1% (inactive)
COCC(=O)N(C)C[C@@H]1Oc2cc(-c3ccc(F)cc3)ccc2S(=O)(=O)N([C@H](C)CO)C[C@H]1C	-0.159% (inactive)
C[C@@H]1CN([C@H](C)CO)C(=O)c2cc(NC(=O)Nc3ccc(F)cc3)ccc2O[C@H]1CN(C)S(=O)(=O)c1cccs1	0.059% (inactive)
COc1ccc(-c2nnc3n2CCCCC3)cc1OC	0.027% (inactive)
CCn1nc(CC(=O)O)c2ccccc2c1=O	5.69% (inactive)
COc1cc(OC)cc(N(C(=O)c2snc(C(N)=O)c2N)C(C(=O)NCC2CCCO2)c2ccc(C)o2)c1 (centres undefined)	-0.112% (inactive)
COc1ccc(NC(=O)N(C)C[C@@H]2Oc3ccc(NC(=O)Cc4ccccc4)cc3CC(=O)N([C@H](C)CO)C[C@H]2C)cc1	-0.201% (inactive)
CCOC(=O)c1cccc(NC(=O)c2cc(C)nn2-c2ccccc2)c1	0.657% (inactive)
CCOc1ccccc1NC(=O)N1CCC(NC(=O)C2CCCCC2)CC1	-0.152% (inactive)
COCC(=O)N(C)C[C@H]1Oc2cc(-c3ccc(F)cc3)ccc2S(=O)(=O)N([C@@H](C)CO)C[C@H]1C	-0.091% (inactive)
COc1ccc(NC(=O)c2cc(-c3cccs3)on2)c(OC)c1	1.59% (inactive)
C[C@@H]1CN([C@H](C)CO)C(=O)c2cc(NS(=O)(=O)c3ccc(F)cc3)ccc2O[C@@H](C)CCCCO[C@@H]1CN(C)S(C)(=O)=O	3.44% (inactive)
O=S1(=O)CC(N2CCN(Cc3ccccc3F)CC2)CN1Cc1cn(Cc2ccccc2)nn1 (centres undefined)	0.129% (inactive)
CN(CC(=O)Nc1cccc(F)c1)CC(=O)N1CCc2ccccc21	0.11% (inactive)
COc1ccc(S(=O)(=O)N(C)C[C@H]2Oc3ccc(NC(=O)c4ccncc4)cc3C(=O)N([C@H](C)CO)C[C@@H]2C)cc1	-0.104% (inactive)
Cc1noc(C)c1S(=O)(=O)Nc1ccc2c(c1)C(=O)N([C@H](C)CO)C[C@@H](C)[C@@H](CN(C)Cc1ccc3c(c1)OCO3)O2	-0.086% (inactive)
Cc1cc(C(=O)Nc2cccc3c2O[C@H](CN(C)C(=O)NC2CCCCC2)[C@@H](C)CN([C@@H](C)CO)C3=O)n(C)n1	-0.268% (inactive)

Same assay, conditions: HUVEC E-selectin immunostaining, at 21 µM (top of the series), percent of TNF-alpha response over vehicle

SMILES	activation
C[C@H]1CN([C@@H](C)CO)C(=O)Cc2cc(NS(C)(=O)=O)ccc2O[C@@H]1CN(C)Cc1ccncc1	0.217% (inactive)
C[C@@H]1CN([C@H](C)CO)C(=O)c2cccc(NS(=O)(=O)c3ccc(F)cc3)c2O[C@@H]1CN(C)S(=O)(=O)c1cccs1	-0.042% (inactive)
C[C@H](CO)N1C[C@H](C)[C@@H](CN(C)S(=O)(=O)c2cccs2)Oc2ccc(NC(=O)CCN3CCOCC3)cc2C1=O	-0.167% (inactive)
C[C@H]1CN([C@@H](C)CO)C(=O)c2cc(NC(=O)Nc3ccccc3)ccc2O[C@@H]1CN(C)C(=O)Nc1ccc(C(F)(F)F)cc1	0.08% (inactive)
C[C@@H]1CN([C@@H](C)CO)C(=O)c2cc(NC(=O)CCCCCC(=O)Nc3ccccc3N)ccc2O[C@H]1CN(C)C(=O)Nc1ccc2c(c1)OCO2	0.05% (inactive)
COc1ccc(S(=O)(=O)Nc2ccc3c(c2)CC(=O)N([C@@H](C)CO)C[C@@H](C)[C@@H](CN(C)C(=O)NC2CCCCC2)O3)cc1	-0.169% (inactive)
COc1ccc(CN(C)C[C@@H]2Oc3c(NC(=O)c4cnccn4)cccc3C(=O)N([C@@H](C)CO)C[C@H]2C)cc1	-0.033% (inactive)
C[C@H]1CN([C@@H](C)CO)C(=O)c2cc(NC(=O)Nc3ccc(C(F)(F)F)cc3)ccc2O[C@@H]1CN(C)S(=O)(=O)c1ccccc1	0.012% (inactive)
